Measured values published in PMC4627731, “Leishmanicidal Effect of Synthetic trans-Resveratrol Analogs” (PLoS ONE, 2015).
Several values for one entry are separate records, joined by “and”; a condition that tells them apart may be missing. Equal values may be shown once. Read-outs that look alike come from different tables or passages of the source.

Key:
[1] = tested on: Leishmania amazonensis promastigotes; experiment: Anti-promastigote activity (XTT); assay type: cell-based; conditions: read-out: IC50 Promastigotes
Procedure: L. amazonensis (WHOM/BR/75/Josefa) promastigotes were cultured at 26°C in Schneider insect medium (Sigma), 10% fetal calf serum (Gibco-BRL, MD, US.) and 20 μg/mL of gentamycin (Schering-Plough, Rio de Janeiro, Brazil).
The leishmanicidal properties of the analogs were evaluated by measuring promastigotes’ mitochondrial activity using the XTT method with 2,3-bis-[2-methoxy-4-nitro-5-sulphophenyl]-2H-tetrazolium-5-carboxanilida, Sigma) as described previously. […] Sodium azide (10 μM) was used as a control, and the reaction product was read at 450 nm.

[2] = tested on: murine peritoneal macrophages; experiment: Nitric oxide production by macrophages (Griess); assay type: cell-based, mouse
Procedure: Thioglycolate-stimulated peritoneal macrophages were obtained as described above (10^6 cells/well in 24-well plate) and were activated with 1 μg/ml LPS (Sigma-Aldrich) or left untreated. […] The nitrite concentrations in the culture supernatants were determined using the Griess method. The reaction was read at 540 nm, and the concentration of NO2 ^- determined using a standard curve of sodium nitrite. The results are expressed as micromolar concentrations of nitrite.

[3] = Nitric oxide-trapping capacity, cell-free SNAP system; conditions: 1 mM SNAP, 6 h, rutin 1 mM, pterostilbene 33.2 μM, piceatannol 45 μM, polydatin 29 μM, oxyresveratrol 30.5 μM
Procedure: A cell-free system with an NO donor was used to test the capacity of resveratrol analogs to trap NO. SNAP (s-nitroso n-acetyl DL-penicillamine, Sigma) liberates nitric oxide in solution, which is then transformed to nitrite in the medium. The addition of a NO scavenger to the SNAP solution results in nitrite decay in the supernatant. […] One milimolar rutin (Sigma), a known NO scavenger, was used as a positive control for this assay. After 6 h of incubation, the nitrite concentration was determined using the Griess method. The results are expressed as the μM concentration of nitrite calculated in comparison with the sodium nitrite standard curve.

[4] = tested on: Leishmania amazonensis promastigotes; experiment: Cell cycle analysis (PI, flow cytometry); assay type: cell-based; conditions: 48 h; for Effect on the cell cycle of the parasite: at promastigote IC50; for % cells in different stages of the cell cycle: G0/G1 / % cells in different stages of the cell cycle: G2/M / % cells in different stages of the cell cycle: S / % cells in different stages of the cell cycle: Sub-G0 / % cells: Hyperploidies: pterostilbene 17.7 μM, piceatannol 65 μM, polydatin 95.4 μM, oxyresveratrol 65 μM, mean ± SEM
Procedure: The cells were washed with PBS and fixed in 70% (v/v) ice-cold methanol/PBS for at least 1 h at 4°C. The fixed cells were washed once with PBS and then incubated in PBS supplemented with 10 μg/mL propidium iodide (PI) and 20 μg/mL RNAse at 37°C, 45 min, as reported. For each sample, 10000 events were collected on a BD FACScalibur (Becton and Dickson) and analyzed using CellQuest software.

[5] = tested on: murine peritoneal macrophages; experiment: Detection of reactive oxygen species (DHR 123); assay type: cell-based, mouse; conditions: compounds at amastigote IC50
Procedure: Mice peritoneal macrophages were adhered to 96-well opaque culture plates and then infected or not with L. amazonensis promastigotes. […] The cells were then stained with 50 μM dihydrorhodamine 123 (DHR 123, Life Technologies), and ROS was measured immediately using 500/526 nm excitation/emission wavelengths.

[6] = tested on: L. amazonensis intracellular amastigotes; experiment: Anti-amastigote activity in infected macrophages; assay type: cell-based, Leishmania amazonensis; conditions: for IC50: L. amazonensis in murine peritoneal macrophages, 24 h treatment; for SI (selectivity index; therapeutic index): ratio of CC50 on murine peritoneal macrophages to IC50 on L. amazonensis intracellular amastigotes
Procedure: Mice peritoneal macrophages obtained after stimulation with thioglycolate for 3 days were harvested in RPMI 1640 medium (LGC Biotecnologia, São Paulo, Brazil), 20 μg/mL of gentamycin and were plated onto 13 mm^2 coverslips inside 24-well plates for adherence for 2 h at 37°C, 5% CO2. Non-adherent cells were removed, and the macrophages were incubated overnight in RPMI supplemented with 10% FCS, as described above. Adhered macrophages were infected with L. amazonensis promastigotes (stationary growth phase) at a 10:1 parasite/macrophage ratio and incubated for 1 h at 34°C, 5% CO2. Free parasites were washed out with 0.01 M phosphate buffered saline (PBS), and the cultures maintained for 24 h at 37°C, 5% CO2. Infected macrophage cultures were treated with different concentrations of the analogs for an additional 24 h at 37°C, 5% CO2. Monolayers were then washed with PBS at 37°C, fixed in methanol, and stained with Giemsa. The number of amastigotes and the percentage of infected macrophages were determined by counting at least 200 cells in duplicate cultures. Endocytic indices were obtained by multiplying the percentage of infected macrophages by the mean number of amastigotes per infected macrophage. The results were expressed as the percentage of surviving macrophages based on endocytic indices of treated and untreated macrophages as reported previously.
The selectivity index was calculated as the ratio of murine peritoneal macrophages CC50 by L. amazonensis intracellular amastigotes IC50.

[7] = tested on: promastigote form of L. infantum; parameters: method as in PMID 23103597; conditions: cited from earlier work
[8] = tested on: amastigote form of L. infantum; parameters: method as in PMID 23103597; conditions: cited from earlier work
[9] = tested on: Leishmania amazonensis promastigotes; experiment: Annexin V binding assay; assay type: cell-based; conditions: 48 h; piceatannol 100 μM, miltefosine 30 μM
Procedure: Double staining for annexin V-fluorescein isothiocyanate (FITC) and PI was performed with the Annexin-V apoptosis detection kit (Molecular Probes). […] They were then washed twice in cold annexin V-buffer and centrifuged at 2760 x g for 10 min. Pellets were resuspended in 20 μL of annexin V FITC, and after 15 min of incubation in the dark, 480 μL of annexin V-buffer was added according to the manufacturer instructions. Annexin V-FITC labeling was recorded on a BD FACScalibur (Becton and Dickson) and analyzed using CellQuest software.

[10] = macrophages infected with L. amazonensis, 29 μM polydatin, 30.5 μM oxyresveratrol
[11] = L. amazonensis infected macrophages
[12] = infected and PMA-stimulated macrophages
[13] = uninfected macrophages stimulated with 1 μg/mL PMA
[14] = Leishmania amazonensis, Peritoneal macrophage
[15] = uninfected macrophages not stimulated, 33.2 μM pterostilbene, 29 μM polydatin
[16] = L. amazonensis promastigotes, 48 h treatment, XTT

Molecule	IC50 ([1]; Leishmania amazonensis, 48 h)	Decrease of NO production [2, 10]	Decrease of NO levels (NO scavenging) [3]	Effect on the cell cycle of the parasite [4]	% cells in different stages of the cell cycle: G0/G1 [4]	% cells in different stages of the cell cycle: G2/M [4]	% cells in different stages of the cell cycle: S [4]	% cells in different stages of the cell cycle: Sub-G0 [4]	% cells: Hyperploidies [4]	Reduction of ROS levels [5, 11]	Reduction of ROS levels [5, 12]	Reduction of ROS levels [5, 13]	Reduction of ROS levels ([5]; uninfected macrophages)	IC50 [6, 14]	SI (selectivity index; therapeutic index) [6]	Decrease of NO production [2, 15]	IC50 [1, 16]	further results
C[C@@H]1[C@H](O)[C@@H](C)/C=C/C=C/C=C/C=C/C=C/C=C/C=C/[C@H](O[C@@H]2O[C@H](C)[C@@H](O)[C@H](N)[C@@H]2O)C[C@@H]2O[C@](O)(C[C@@H](O)C[C@@H](O)[C@H](O)CC[C@@H](O)C[C@@H](O)CC(=O)O[C@H]1C)C[C@H](O)[C@H]2C(=O)O [Amphotericin B, reference compound]	0.1 µM																	
Oc1cc(O)cc(/C=C/c2ccc(O)cc2O)c1 [Oxyresveratrol, trans-2,3′,4,5′-tetrahydroxystilbene]	65 µM	2.0 fold	did not reduce the levels of NO	did not alter the cell cycle	34.380 ± 2.300%	21.073 ± 2.386%	9.570 ± 0.444%	10.413 ± 3.895%	24.862 ± 2.500%	4.6 fold	4.7 fold	4.8 fold	3.6 fold	30.5 µM	4.2			
trans-3,5-dimethoxy-4-hydroxystilbene [Pterostilbene]			22%	did not alter the cell cycle	42.380 ± 1.006%	24.713 ± 1.331%	7.823 ± 0.915%	4.423 ± 0.216%	20.873 ± 0.309%	1.6 fold	1.6 fold	2.0 fold				3.8 fold	17.7 µM	Decrease of NO production ([2]; uninfected macrophages stimulated with LPS, 33.2 μM pterostilbene, 45 μM piceatannol): 5.3 fold; LD50 promastigote form of L. infantum [7]: 7.6 μg/mL and 29.6 μM; IC50 ([1]; L. amazonensis promastigotes, 48 h treatment, XTT, listed as pterostilbene): 18 µM; IC50 [6]: 33.2 µM; LD50 amastigote form of L. infantum [8]: 10.3 μg/mL and 40.2 μM
C[C@@H]1O[C@@H](OC[C@H]2O[C@@H](Oc3c(-c4ccc(O)c(O)c4)oc4cc(O)cc(O)c4c3=O)[C@H](O)[C@@H](O)[C@@H]2O)[C@H](O)[C@H](O)[C@H]1O [rutin, reference compound]			72%															
CCCCCCCCCCCCCCCCOP(=O)([O-])OCC[N+](C)(C)C [Miltefosine, reference compound]																		Increase of annexin-V positive promastigotes in relation to untreated control [9]: 13.2 fold
OC[C@H]1O[C@@H](Oc2cc(O)cc(/C=C/c3ccc(O)cc3)c2)[C@H](O)[C@@H](O)[C@@H]1O [Polydatin, resveratrol-3-O-b-mono-D-glucoside]		6.1 fold	did not reduce the levels of NO	did not alter the cell cycle	32.040 ± 2.699%	20.090 ± 2.661%	8.698 ± 0.946%	13.250 ± 4.747%	26.233 ± 1.273%	2.1 fold	2.2 fold	2.0 fold	1.8 fold	29 µM	5.2	2.8 fold	95.5 µM	IC50 ([1]; Leishmania amazonensis, 48 h, L. amazonensis promastigotes, 48 h treatment, XTT): 95 µM
